Data on 14 compounds can be found in patent US9771369B2, “Compounds and methods for kinase modulation, and indications therefor” (Plexxikon Inc., priority 2014, dated 2017).

The subject of assay [1] is BaF3-FL KIT D816V or BaF3-FL KIT V560G/D816V cell line. The experiment in a line: Cell-based assays of c-Kit mutant kinase activity (cell proliferation, ATPlite). The conditions noted are these: at least one of the c-kit cell assays of Example 7. The gist of the method: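 BaF3 cells dependent on transfected full-length human KIT D816V or V560G/D816V (pCI-Neo, CMV promoter) were seeded at 1×10^4 cells/well and exposed to 8-point 1:3 dilutions from 10 μM top (0.2% DMSO) for three days at 37° C. ATPlite luminescence gave cell number; IC50 from concentration-response.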
For orientation: In ATP-based viability assays light output follows the ATP content of the culture.

Another assay addresses c-Kit kinase (Homo sapiens (Human), UniProt P10721). The experiment in a line: c-Kit biochemical assay (AlphaScreen kinase activity). The gist of the method:
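IC50 values come from 8-point, 1:3 compound titrations measuring inhibition of peptide phosphorylation by c-Kit (commercial or His-tagged E. coli-expressed) over 1 h at room temperature, read by AlphaScreen PY30/streptavidin beads. Low-ATP version: 10 μM ATP, 100 nM biotin-(E4Y)3; high-ATP version: 100 μM ATP, 30 nM biotin-(E4Y)10.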
(In general: Bead proximity is the source of the signal in Alpha formats.)

c-Kit kinase, sequence (P10721 26-976): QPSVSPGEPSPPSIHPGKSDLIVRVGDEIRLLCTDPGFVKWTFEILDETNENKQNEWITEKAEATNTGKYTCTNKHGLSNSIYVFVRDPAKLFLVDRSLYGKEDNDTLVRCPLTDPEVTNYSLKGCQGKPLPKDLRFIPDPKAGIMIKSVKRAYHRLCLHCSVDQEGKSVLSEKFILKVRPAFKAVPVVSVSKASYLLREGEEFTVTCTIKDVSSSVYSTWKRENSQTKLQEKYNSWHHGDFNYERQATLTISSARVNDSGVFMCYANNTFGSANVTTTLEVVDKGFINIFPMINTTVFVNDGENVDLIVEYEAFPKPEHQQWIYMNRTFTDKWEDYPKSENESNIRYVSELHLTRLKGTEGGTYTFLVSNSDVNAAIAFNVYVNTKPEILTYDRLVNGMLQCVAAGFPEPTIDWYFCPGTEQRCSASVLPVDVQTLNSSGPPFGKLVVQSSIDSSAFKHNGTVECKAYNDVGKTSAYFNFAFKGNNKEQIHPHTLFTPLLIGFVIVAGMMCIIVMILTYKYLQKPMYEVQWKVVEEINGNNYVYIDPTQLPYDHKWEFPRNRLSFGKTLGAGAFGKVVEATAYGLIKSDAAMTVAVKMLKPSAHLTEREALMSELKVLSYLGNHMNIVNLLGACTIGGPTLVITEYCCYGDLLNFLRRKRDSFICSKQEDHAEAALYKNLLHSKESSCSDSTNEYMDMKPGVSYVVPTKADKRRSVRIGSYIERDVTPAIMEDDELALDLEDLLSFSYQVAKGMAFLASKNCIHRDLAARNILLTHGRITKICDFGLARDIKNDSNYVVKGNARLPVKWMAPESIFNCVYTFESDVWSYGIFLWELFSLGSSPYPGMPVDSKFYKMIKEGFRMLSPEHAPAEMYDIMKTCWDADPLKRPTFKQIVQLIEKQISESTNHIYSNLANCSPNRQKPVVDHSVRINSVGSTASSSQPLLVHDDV

For `CNC(=O)c1ccc(-c2cc3c(N4CCC(C)(c5nc(C)c(-c6cccc(OC(F)F)c6)[nH]5)CC4)ncnc3[nH]2)cn1` [P-3236, 5-[4-[4-[5-[3-(difluoromethoxy)phenyl]-4-methyl-1H-imidazol-2-yl]-4-methyl-1-piperidyl]-7H-pyrrolo[2,3-d]pyrimidin-6-yl]-N-methyl-pyridine-2-carb oxamide], the IC50 (as a rule, the concentration at which inhibition is half-maximal) in assay [1] was < 10 µM; against c-Kit kinase, 0.0001 to 1 µM.
The corresponding values for `Cc1nc(C2(C)CCN(c3ncnc4[nH]c(-c5ccc(N6CCOCC6)nc5)cc34)CC2)[nH]c1-c1ccc(C(F)F)cc1` [P-3237, 4-[5-[4-[4-[5-[4-(difluoromethyl)phenyl]-4-methyl-1H-imidazol-2-yl]-4-methyl-1-piperidyl]-7H-pyrrolo[2,3-d]pyrimidin-6-yl]-2-pyridyl]morpholine] are < 10 µM and 0.0001 to 1 µM.
The corresponding values for `Cc1nc(C2(C)CCN(c3ncnc4[nH]c(-c5ccc(N6CCOCC6)nc5)cc34)CC2)[nH]c1-c1cccc(OC(F)F)c1` [P-3238, 4-[5-[4-[4-[5-[3-(difluoromethoxy)phenyl]-4-methyl-1H-imidazol-2-yl]-4-methyl-1-piperidyl]-7H-pyrrolo[2,3-d]pyrimidin-6-yl]-2-pyridyl]morpholine] are < 10 µM and 0.0001 to 1 µM.
The corresponding values for `Cc1nc(C2(C)CCN(c3ncnc4[nH]c(-c5ccc(C(N)=O)cc5)cc34)CC2)[nH]c1-c1ccc(C(F)F)cc1` [P-3239, 4-[4-[4-[5-[4-(difluoromethyl)phenyl]-4-methyl-1H-imidazol-2-yl]-4-methyl-1-piperidyl]-7H-pyrrolo[2,3-d]pyrimidin-6-yl]benzamide] are < 10 µM and 0.0001 to 1 µM.
As for `Cc1nc(C2(C)CCN(c3ncnc4[nH]c(-c5ccc(OCC(=O)O)cc5)cc34)CC2)[nH]c1-c1ccc(C(F)F)cc1` [P-3240, 2-[4-[4-[4-[5-[4-(difluoromethyl)phenyl]-4-methyl-1H-imidazol-2-yl]-4-methyl-1-piperidyl]-7H-pyrrolo[2,3-d]pyrimidin-6-yl]phenoxy]acetic acid], the values for the IC50 (in assay [1]; against c-Kit kinase) were < 10 µM and 0.0001 to 1 µM, respectively.
The corresponding values for `Cc1nc(C2(C)CCN(c3ncnc4[nH]c(-c5ccc(OCC(=O)O)cc5)cc34)CC2)[nH]c1-c1ccc(OC(F)F)cc1` [P-3241, 2-[4-[4-[4-[5-[4-(difluoromethoxy)phenyl]-4-methyl-1H-imidazol-2-yl]-4-methyl-1-piperidyl]-7H-pyrrolo[2,3-d]pyrimidin-6-yl]phenoxy]acetic acid] are < 10 µM and 0.0001 to 1 µM.
On the same counts, the results for `Cc1nc(C2(C)CCN(c3ncnc4[nH]c(-c5cnn(C(F)F)c5)cc34)CC2)[nH]c1-c1ccc(OC(F)F)cc1` [P-3242, 4-[4-[5-[4-(difluoromethoxy)phenyl]-4-methyl-1H-imidazol-2-yl]-4-methyl-1-piperidyl]-6-[1-(difluoromethyl)pyrazol-4-yl]-7H-pyrrolo[2,3-d]pyrimidine] are < 10 µM and 0.0001 to 1 µM.
On the same counts, the results for `CCOc1ccc(-c2[nH]c(C3(C)CCN(c4ncnc5[nH]c(-c6ccc(C(N)=O)cc6)cc45)CC3)nc2C)cc1C` [P-3243, 4-[4-[4-[5-(4-ethoxy-3-methyl-phenyl)-4-methyl-1H-imidazol-2-yl]-4-methyl-1-piperidyl]-7H-pyrrolo[2,3-d]pyrimidin-6-yl]benzamide] are < 10 µM and 0.0001 to 1 µM.
Regarding `CCOc1ccc(-c2[nH]c(C3(C)CCN(c4ncnc5[nH]c(-c6ccc(OCC(=O)O)cc6)cc45)CC3)nc2C)cc1C` [P-3244, 2-[4-[4-[4-[5-(4-ethoxy-3-methyl-phenyl)-4-methyl-1H-imidazol-2-yl]-4-methyl-1-piperidyl]-7H-pyrrolo[2,3-d]pyrimidin-6-yl]phenoxy]acetic acid], the IC50 in assay [1] was < 10 µM; at c-Kit kinase, 0.0001 to 1 µM.
On the same counts, the results for `CCOc1ccc(-c2[nH]c(C3(C)CCN(c4ncnc5[nH]c(-c6cnn(C(F)F)c6)cc45)CC3)nc2C)cc1C` [P-3245, 6-[1-(difluoromethyl)pyrazol-4-yl]-4-[4-[5-(4-ethoxy-3-methyl-phenyl)-4-methyl-1H-imidazol-2-yl]-4-methyl-1-piperidyl]-7H-pyrrolo[2,3-d]pyrimidine] are < 10 µM and 0.0001 to 1 µM.
The corresponding values for `CNC(=O)c1ccc(-c2cc3c(N4CCC(C)(c5nc(C)c(-c6ccc(OC(F)F)cc6)[nH]5)CC4)ncnc3[nH]2)cn1` [P-3246, 5-[4-[4-[5-[4-(difluoromethoxy)phenyl]-4-methyl-1H-imidazol-2-yl]-4-methyl-1-piperidyl]-7H-pyrrolo[2,3-d]pyrimidin-6-yl]-N-methyl-pyridine-2-carb oxamide] are < 10 µM and 0.0001 to 1 µM.
On the same counts, the results for `CCOc1ccc(-c2[nH]c(C3(C)CCN(c4ncnc5[nH]c(-c6ccc(C(=O)NC)nc6)cc45)CC3)nc2C)cc1C` [P-3247, 5-[4-[4-[5-(4-ethoxy-3-methyl-phenyl)-4-methyl-1H-imidazol-2-yl]-4-methyl-1-piperidyl]-7H-pyrrolo[2,3-d]pyrimidin-6-yl]-N-methyl-pyridine-2-carb oxamide] are < 10 µM and 0.0001 to 1 µM.
With `Cc1nc(C2(C)CCN(c3ncnc4[nH]c(-c5ccc(N6CCOCC6)nc5)cc34)CC2)[nH]c1-c1ccc(OC(F)F)cc1` [P-3248, 4-[5-[4-[4-[5-[4-(difluoromethoxy)phenyl]-4-methyl-1H-imidazol-2-yl]-4-methyl-1-piperidyl]-7H-pyrrolo[2,3-d]pyrimidin-6-yl]-2-pyridyl]morpholine], the values for the IC50 (in assay [1]; on c-Kit kinase) were < 10 µM and 0.0001 to 1 µM, respectively.
On the same counts, the results for `CCOc1ccc(-c2[nH]c(C3(C)CCN(c4ncnc5[nH]c(-c6ccc(N7CCOCC7)nc6)cc45)CC3)nc2C)cc1C` [P-3249, 4-[5-[4-[4-[5-(4-ethoxy-3-methyl-phenyl)-4-methyl-1H-imidazol-2-yl]-4-methyl-1-piperidyl]-7H-pyrrolo[2,3-d]pyrimidin-6-yl]-2-pyridyl]morpholine] are < 10 µM and 0.0001 to 1 µM.
